Assay results as given in ChEMBL document CHEMBL3885861, “Open TG-GATES”.

Organism: Rattus norvegicus
Assay: Open TG-GATES - Regimen: Single
Format: toxicity, organism-based, Sprague-Dawley
Parameters: regimen Single, gender Male, age 6 weeks
Settings: in vivo, po, 30 mg/kg, route gavage, dose level High; for APTT / Bas / Eos / Fbg / Hb / Ht / Lym / MCH / MCHC / MCV / Mono / Neu / PT / Plat / RBC / Ret / WBC: tissue Blood; for KIDNEY_L / KIDNEY_R / KIDNEY_TOTAL: tissue Kidney; for LIVER: tissue Liver; for A/G / ALP / ALT / AST / BUN / CRE / Ca / Cl / DBIL / GLC / IP / K / LDH / Na / PL / RALB / TBIL / TC / TG / TP / gamma-GTP: tissue Plasma

## C=CCO [ALLYL ALCOHOL]
3 h
  TERMINAL_BW: 222.7 g
  APTT: 19.6 s
  Bas: 0%
  Eos: 1%
  Fbg: 211.6 mg/dL
  Hb: 13.4 g/dL
  Ht: 38.7%
  Lym: 75%
  MCH: 21.7 pg
  MCHC: 34.8%
  MCV: 62.3 fL
  Mono: 3%
  Neu: 20.4%
  PT: 12.4 s
  Plat: 134.6 x10_4/uL
  RBC: 622.4 x10_4/ul
  Ret: 7.4%
  WBC: 88.9 x10_2/uL
  KIDNEY_L: 1 g
  KIDNEY_R: 1 g
  KIDNEY_TOTAL: 1.9 g
  LIVER: 10.3 g
  A/G: 1.5
  ALP: 976.6 IU/L
  ALT: 42.8 IU/L
  AST: 77.2 IU/L
  BUN: 12 mg/dL
  CRE: 0.3 mg/dL
  Ca: 11 mg/dL
  Cl: 101.6 meq/L
  DBIL: 0.5 mg/dL
  GLC: 202.2 mg/dL
  IP: 8.9 mg/dL
  K: 3.7 meq/L
  LDH: 233.4 IU/L
  Na: 140.8 meq/L
  PL: 177 mg/dL
  RALB: 3.4 g/dL
  TBIL: 0.6 mg/dL
  TC: 80 mg/dL
  TG: 255 mg/dL
  TP: 5.6 g/dL
  gamma-GTP: 1.2 IU/L
6 h
  TERMINAL_BW: 220.4 g
  APTT: 19.3 s
  Bas: 0%
  Eos: 1%
  Fbg: 217 mg/dL
  Hb: 13.5 g/dL
  Ht: 39.5%
  Lym: 67%
  MCH: 20.5 pg
  MCHC: 34%
  MCV: 60.2 fL
  Mono: 5.2%
  Neu: 25.8%
  PT: 12.4 s
  Plat: 129.3 x10_4/uL
  RBC: 658 x10_4/ul
  Ret: 7.1%
  WBC: 127.5 x10_2/uL
  KIDNEY_L: 0.9 g
  KIDNEY_R: 0.9 g
  KIDNEY_TOTAL: 1.9 g
  LIVER: 9.4 g
  A/G: 1.4
  ALP: 1023.4 IU/L
  ALT: 101.2 IU/L
  AST: 168.4 IU/L
  BUN: 10.2 mg/dL
  CRE: 0.4 mg/dL
  Ca: 10.5 mg/dL
  Cl: 102.4 meq/L
  DBIL: 0.1 mg/dL
  GLC: 198.4 mg/dL
  IP: 9.2 mg/dL
  K: 3.8 meq/L
  LDH: 564.8 IU/L
  Na: 140.6 meq/L
  PL: 168 mg/dL
  RALB: 3.1 g/dL
  TBIL: 0.2 mg/dL
  TC: 85.4 mg/dL
  TG: 97.6 mg/dL
  TP: 5.3 g/dL
  gamma-GTP: 2 IU/L
9 h
  TERMINAL_BW: 216.4 g
  APTT: 18.7 s
  Bas: 0%
  Eos: 1%
  Fbg: 222.2 mg/dL
  Hb: 13.2 g/dL
  Ht: 38.8%
  Lym: 66.8%
  MCH: 21.3 pg
  MCHC: 34.1%
  MCV: 62.5 fL
  Mono: 3.2%
  Neu: 28.6%
  PT: 12.4 s
  Plat: 129.2 x10_4/uL
  RBC: 620.6 x10_4/ul
  Ret: 7.4%
  WBC: 104.8 x10_2/uL
  KIDNEY_L: 1 g
  KIDNEY_R: 1 g
  KIDNEY_TOTAL: 2 g
  LIVER: 9.3 g
  A/G: 1.5
  ALP: 1007 IU/L
  ALT: 30.6 IU/L
  AST: 64.2 IU/L
  BUN: 11.4 mg/dL
  CRE: 0.4 mg/dL
  Ca: 10.3 mg/dL
  Cl: 101.4 meq/L
  DBIL: 0.086 mg/dL
  GLC: 206.8 mg/dL
  IP: 10.5 mg/dL
  K: 4.2 meq/L
  LDH: 200 IU/L
  Na: 139 meq/L
  PL: 141.2 mg/dL
  RALB: 3.1 g/dL
  TBIL: 0.1 mg/dL
  TC: 73 mg/dL
  TG: 63.8 mg/dL
  TP: 5.2 g/dL
  gamma-GTP: 0.8 IU/L
24 h
  TERMINAL_BW: 231.4 g
  APTT: 18.2 s
  Bas: 0%
  Eos: 1%
  Fbg: 257.2 mg/dL
  Hb: 13 g/dL
  Ht: 38.3%
  Lym: 67.4%
  MCH: 20.9 pg
  MCHC: 34.1%
  MCV: 61.4 fL
  Mono: 4.4%
  Neu: 26.8%
  PT: 11.9 s
  Plat: 138.1 x10_4/uL
  RBC: 625 x10_4/ul
  Ret: 6.1%
  WBC: 103.6 x10_2/uL
  KIDNEY_L: 1 g
  KIDNEY_R: 1 g
  KIDNEY_TOTAL: 2 g
  LIVER: 11.5 g
  A/G: 1.4
  ALP: 963.8 IU/L
  ALT: 33.6 IU/L
  AST: 64 IU/L
  BUN: 12.6 mg/dL
  CRE: 0.4 mg/dL
  Ca: 10.4 mg/dL
  Cl: 102.4 meq/L
  DBIL: 0.052 mg/dL
  GLC: 203.8 mg/dL
  IP: 7.6 mg/dL
  K: 3.6 meq/L
  LDH: 209.8 IU/L
  Na: 141 meq/L
  PL: 148 mg/dL
  RALB: 3 g/dL
  TBIL: 0.1 mg/dL
  TC: 81.6 mg/dL
  TG: 83 mg/dL
  TP: 5.1 g/dL
  gamma-GTP: 0.8 IU/L
